Reference: US20170333516A1, “PREVENTIVE OR THERAPEUTIC AGENT FOR AGE-RELATED MACULAR DEGENERATION” (JUNTENDO EDUCATIONAL FOUNDATION, priority 2014, published 2017)

Tested on: angiogenesis from the choroid plexus
Assay: Laser-induced angiogenesis from the choroid plexus (AMD model), administration into the vitreous body
Format: in vivo, mouse
Conditions: for suppressive effect on AMD onset (FIG. 2): figure legend FIG. 2, old mice, administration into vitreous body after laser irradiation
Description: Laser light (power: 200 mW, exposure time: 0.10 seconds, wavelength: 532 nm) was irradiated in 4 to 5 spots onto male young (8 to 12 weeks) and old (44 to 48 weeks) BLT1^+/+ mice and BLT1^−/− mice, and after 7 days, the eyes were isolated and fixed using a phosphate buffered saline (PBS) containing 4% paraformaldehyde (PFA), the cornea, lens, and retina were removed, and then fixed again using 4% PFA/PBS. The ocular tissue containing the retinal pigment epithelia and choroid plexus were immersed in PBS containing methanol in order of 50%, 75%, 100%, 75%, 50%, and 25% to remove water, and then incubated at 4° C. for 1 hour in a blocking solution (1% bovine blood serum albumin, phosphate buffered saline containing 0.1% Triton X-100), and then stained overnight at 4° C. using isolectin B4 (IB4, […]) labeled with FITC. Incisions were made in the samples and the samples were molded on a slide glass, sealed with a mounting agent containing an antifading reagent, and then a cover glass was placed thereon to produce a flat mount. A three-dimensional IB4 positive blood vessels image was captured using a confocal microscope, and the volume of angiogenesis that occurred in each mouse was measured.
Immediately after laser light irradiation of C57BL/6 background old mice purchased (Japan SLC, wild mice, 40 weeks or older, male), DMSO (final: 0.1%, diluted with PBS), CP105696 (where in the formula (1), R^1=phenyl and R^2=1-carboxycyclopentyl group) which is a BLT1 antagonist, or zileuton, bestatin, or MK886 each of which is an inhibitor for LTB4 production-related enzyme was administered into a vitreous body of each mouse. Similar to Test Example 1, angiogenesis from the choroid plexus was evaluated 7 days after laser irradiation.

| Compound | angiogenesis volume (C57BL/6 background old mice (40 weeks or older, male), administered into vitreous body immediately after laser irradiation, evaluated 7 days after laser irradiation) | suppressive effect on AMD onset (FIG. 2) |
| --- | --- | --- |
| O=C(O)C1(c2ccc3c(c2)OC[C@H](Cc2ccc(-c4ccccc4)cc2)[C@H]3O)CCCC1 [CP 105696, 1-[(3S,4R)-4-hydroxy-3-[(4-phenylphenyl)methyl]chroman-7-yl]cyclopentane-1-carboxylic acid] | significantly reduced in a concentration-dependent manner | suppressive effect |
| CC(C)C[C@H](NC(=O)[C@@H](O)[C@H](N)Cc1ccccc1)C(=O)O [bestatin, N-[(2S,3R)-3-amino-2-hydroxy-4-phenylbutyryl]-L-leucine] |  | suppressive effect |
| CC(C)c1ccc2c(c1)c(SC(C)(C)C)c(CC(C)(C)C(=O)O)n2Cc1ccc(Cl)cc1 [MK886] |  | suppressive effect |
| CC(c1cc2ccccc2s1)N(O)C(N)=O (centres unmarked) [zileuton, N-[1-(1-benzothien-2-yl)ethyl]-N-hydroxyurea] |  | suppressive effect |
